Results taken from patent US8187882B2, “Multiple shoot proliferation and regeneration system for plants” (Monsanto Technology LLC, priority 2001, dated 2012).
Counter-ions that a name gives are not always drawn.

Columns and labels:
[1] = test system: DP50 cotton zygotic embryo explants; assay: Relative activity of different formulations of dikegulac on DP50 cotton zygotic embryo explants; type: cell-based; conditions: cv DP50
Method: Any common plant tissue culture media can be used, including, but not limited to, modified LP medium, DKW medium, GD1 medium, MS/B5 medium, or WPM medium. Embryo axes should be placed apical end up and basal end into the medium so that the radicle is beneath the medium surface. The explants are cultured axenically at approximately 25-28° C. under fluorescent lighting at about 10-50 μE PAR for a 16-hour photoperiod. Typically it takes 5-10 weeks for multiple shoots in cotton to develop to a useful size. Table 4 is a comparison of many different formulations of dikegulac.

cotton plants = assay: Morphology and fertility of cotton plants grown from elongated, rooted shoots produced with dikegulac; type: in vivo
Description: Elongation and rooting After multiple shoots are produced, individual shoots, epicotyls, or entire shoot clump developed on the explant are excised and subcultured on the basal medium used above (without the growth regulators, or with exogenous auxin) under the same temperature and light conditions. Table 4 is a comparison of many different formulations of dikegulac.

cotton embryos = assay: Multiple shoot formation from cotton embryos cultured on varying levels of dikegulac with 1 mg/L IAA and 1 mg/L BAP; type: cell-based
Method: Tissue culture: Embryo explants are cultured in media in a suitable culture vessel containing 500 mg/L sodium dikegulac (2,3:4,6-diisopropylidene-2-keto-1-gulonic acid), 1 mg/L IAA (indole-3-acetic acid), and 1 mg/L BA (N-6-benzyladenine) (herein after referred to as DIB media). Any common plant tissue culture media can be used, including, but not limited to, modified LP medium, DKW medium, GD1 medium, MS/B5 medium, or WPM medium. Embryo axes should be placed apical end up and basal end into the medium so that the radicle is beneath the medium surface. The explants are cultured axenically at approximately 25-28° C. under fluorescent lighting at about 10-50 μE PAR for a 16-hour photoperiod. Typically it takes 5-10 weeks for multiple shoots in cotton to develop to a useful size. Experiments were done to determine if the form of the dikegulac is important and to determine a minimum optimum level of dikegulac needed for multiple shoot formation. […] What is not captured in the numerical data in Table 3 is the overall phenotypic response of the cultures. The explants cultured on the MS/B5 medium contained a lot of callus tissue at the base and the cultures were yellowing. The cultures on GD1 contained only a minimal amount of callus but the yellowing of the regenerating tissues was present.

cotton explants = assay: Early experiments with dikegulac sodium salt in the culture medium for cotton; type: cell-based; conditions: 1000 mg/L incorporated into the culture medium
Method: Forms of dikegulac: Dikegulac comes in several forms, for example a sodium salt, Atrimmec™, and free add. Early experiments were done using 1000 mg/L of the sodium salt incorporated into the culture medium for cotton. […] Later tests reduced this to 500 mg/L for ease of shoot development. Sodium dikegulac (500 mg/L) was tested in all combinations with BAP (0, 1, and 5 mg/L) and IAA (0, 1, and 5 mg/L). For US upland cotton varieties, 500 mg/L dikegulac, 1 mg/L IAA and 1 mg/L BA is a particularly useful combination. Zeatin riboside (ZR) can be substituted for BA with good results. The cytokinin component can also be omitted with good results.

[2] = Study 1, 500 mg/L, solid DIB medium
[3] = Study 1, 500 mg/L, liquid DIB medium
[4] = Study 2, 500 mg/L, solid DIB medium
[5] = MS/B5 medium, dikegulac 200 mg/L
[6] = MS/B5 medium, dikegulac 300 mg/L
[7] = MS/B5 medium, dikegulac 500 mg/L

Compound	Extra buds per viable explant [1, 2]	No. non-viable Explants [1, 2]	Percent Responding [1, 2]	Extra buds per viable explant [1, 3]	No. non-viable Explants [1, 3]	Percent Responding [1, 3]	Extra buds per viable explant [1, 4]	No. non-viable Explants [1, 4]	Percent Responding [1, 4]	Fertility of plants developed from elongated, rooted shoots (cotton plants)	Morphology of plants developed from elongated, rooted shoots (cotton plants)	# Responding, multiple shoots (cotton embryos; GD1 medium, dikegulac 500 mg/L)	# Responding, multiple shoots (cotton embryos; [7])	also measured
CC1(C)OC[C@@H]2O[C@@]3(C(=O)[O-])OC(C)(C)O[C@H]3[C@@H]2O1.[Na+] [RJK-H]	3.7	9	85%	–	–	–	–	–	–	–	–	–	–	Extra buds per viable explant ([1]; Study 3, 400): 1.9; No. non-viable Explants ([1]; Study 3, 400): 20; Percent Responding ([1]; Study 3, 400): 75%; Extra buds per viable explant ([1]; Study 3, 500): 3.0; No. non-viable Explants ([1]; Study 3, 500): 17; Percent Responding ([1]; Study 3, 500): 79%; Extra buds per viable explant ([1]; Study 3, 600): 3.4; No. non-viable Explants ([1]; Study 3, 600): 24; Percent Responding ([1]; Study 3, 600): 70%; Extra buds per viable explant ([1]; Study 3, 700): 3.1; No. non-viable Explants ([1]; Study 3, 700): 33; Percent Responding ([1]; Study 3, 700): 59%
CC1(C)OC[C@@H]2O[C@@]3(C(=O)O)OC(C)(C)O[C@H]3[C@@H]2O1 [dikegulac (acid form), 2,3:4,6-di-o-isopropylidene-2-keto-L-gulonic add]	3.8	8	87%	3.4	16	67%	4.2	1	96%	100%	morphologically normal	40/50	38/50	# Responding, single shoots (cotton embryos; GD1 medium, dikegulac 100 mg/L): 39/50; # Responding, multiple shoots (cotton embryos; GD1 medium, dikegulac 200 mg/L): 21/50; # Responding, single shoots (cotton embryos; GD1 medium, dikegulac 200 mg/L): 22/50; # Responding, multiple shoots (cotton embryos; GD1 medium, dikegulac 300 mg/L): 33/50; # Responding, single shoots (cotton embryos; GD1 medium, dikegulac 300 mg/L): 10/50; # Responding, multiple shoots (cotton embryos; GD1 medium, dikegulac 400 mg/L): 37/50; # Responding, single shoots (cotton embryos; MS/B5 medium, dikegulac 100 mg/L): 36/50; # Responding, multiple shoots (cotton embryos; [5]): 38/50; # Responding, single shoots (cotton embryos; [5]): 9/50; # Responding, multiple shoots (cotton embryos; [6]): 41/50; # Responding, single shoots (cotton embryos; [6]): 3/50; # Responding, multiple shoots (cotton embryos; MS/B5 medium, dikegulac 400 mg/L): 40/50
CC1(C)OC[C@@H]2O[C@@]3(C(=O)[O-])OC(C)(C)O[C@H]3[C@@H]2O1.[Na+] [Q2161]	2.9	9	85%	3.5	20	64%	–	–	–	–	–	–	–	–
CC1(C)OC[C@@H]2O[C@@]3(C(=O)[O-])OC(C)(C)O[C@H]3[C@@H]2O1.[Na+] [RJK-D]	–	–	–	3.3	11	82%	–	–	–	–	–	–	–	–
CC1(C)OC[C@@H]2O[C@@]3(C(=O)[O-])OC(C)(C)O[C@H]3[C@@H]2O1.[Na+] [D4043]	3.4	5	92%	3.9	16	84%	4.1	8	83%	–	–	–	–	–
CC1(C)OC[C@@H]2O[C@@]3(C(=O)O)OC(C)(C)O[C@H]3[C@@H]2O1 [dikegulac (sodium salt), 2,3:4,6-diisopropylidene-2-keto-1-gulonic acid]	–	–	–	–	–	–	–	–	–	100%	morphologically normal	35/50	39/50	Response of cotton explants (cotton explants): swelling, enlarged meristems, and adventitious-like leaf primordia, but the explants did not easily grow out
